Test systems include UACC-62 melanoma; SK-MEL-2 melanoma; UO-31 renal; KM12 colon; BT-549 breast; MDA-MB-231 breast; NCI-H460 lung; A498 renal; SN12C renal; EKVX NSCLC; HS 578T breast; OVCAR-4 ovarian; SK-MEL-5 melanoma; SNB-75 CNS; SW-620 colon; SK-MEL-28 melanoma; SR leukemia.
What all share (experiment): NCI-60 cell line screen, 48 h

Molecules are shown by their SMILES. Several values for one entry are separate records, joined by “and”; a condition that tells them apart may be missing. Equal values may be shown once.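 Values below derive from 48-hour exposures of cells grown in 96-well plates, with endpoints linearly interpolated between the two concentrations bracketing the appropriate inhibition level. Here, GI50 denotes the concentration required for 50% inhibition of growth. TGI: total growth inhibition.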

As to `O=C(OC1OC2COC(=O)c3cc(O)c(O)c(O)c3-c3c(cc(O)c(O)c3O)C(=O)OC3C2OC(=O)[C@@]24CC(=O)[C@@](O)(OC25C(=O)O[C@H]2[C@@H](O)CO[C@@]25O)C2(O)Oc5c(O)c(O)cc(c5C24)C(=O)OC13)c1cc(O)c(O)c(O)c1` (some centres not stated), the TGI is over 100 µM in the experiment with UACC-62 melanoma; over 100 µM in the experiment with SK-MEL-2 melanoma; over 100 µM in the experiment with UO-31 renal; 68.6 µM in the experiment on KM12 colon; over 100 µM in the experiment on BT-549 breast; 18.5 µM with MDA-MB-231 breast. Further, the TGI in the experiment with NCI-H460 lung, in the experiment on A498 renal, in the experiment with SN12C renal, with EKVX NSCLC, with HS 578T breast and in the experiment with OVCAR-4 ovarian was over 100 µM in each case. The TGI in the experiment on SK-MEL-5 melanoma was over 100 µM; with SNB-75 CNS it was over 100 µM; in the experiment with SW-620 colon it was over 100 µM; in the experiment on SK-MEL-28 melanoma it was over 100 µM; with SR leukemia, 94.6 µM.

As for `COc1cc(S(=O)(=O)Nc2nc(-c3ccc(N=Cc4ccccc4O)cc3)cs2)ccc1Cl`, the TGI in the experiment on UACC-62 melanoma was 75.9 µM; with SK-MEL-2 melanoma, over 100 µM; in the experiment on UO-31 renal, over 100 µM; with KM12 colon, over 100 µM; in the experiment with BT-549 breast, over 100 µM; in the experiment on MDA-MB-231 breast, over 100 µM. The TGI was over 100 µM with NCI-H460 lung; over 100 µM in the experiment on A498 renal; 77.3 µM with SN12C renal; 86.8 µM in the experiment with EKVX NSCLC; over 100 µM with HS 578T breast; over 100 µM in the experiment on OVCAR-4 ovarian. For the same compound, the TGI is 71.5 µM with SK-MEL-5 melanoma; over 100 µM with SNB-75 CNS; over 100 µM in the experiment on SW-620 colon; over 100 µM with SK-MEL-28 melanoma; over 100 µM in the experiment with SR leukemia.

As to `CCOc1ccc(NC(=O)C(=O)C(/C(=N/N)C(=O)OC)c2nc3ccc([N+](=O)[O-])cc3[nH]c2=O)cc1` (configuration not stated), the TGI with UACC-62 melanoma, in the experiment with SK-MEL-2 melanoma, with UO-31 renal, with KM12 colon, in the experiment on BT-549 breast and in the experiment with MDA-MB-231 breast was over 100 µM each time. For the same compound, the TGI in the experiment on NCI-H460 lung, in the experiment on A498 renal, in the experiment with SN12C renal, in the experiment with EKVX NSCLC, with HS 578T breast and with OVCAR-4 ovarian was over 100 µM each time. For the same compound, the TGI in the experiment on SK-MEL-5 melanoma, in the experiment with SNB-75 CNS, in the experiment with SW-620 colon, with SK-MEL-28 melanoma and in the experiment with SR leukemia was over 100 µM in each case.

Turning to `O=C(Nc1ccc(Cl)cc1Cl)C1C(=O)OC2(CCCCC2)OC1=O`, the TGI with UACC-62 melanoma came out at 24.4 µM; in the experiment on SK-MEL-2 melanoma it was 12.6 µM; in the experiment on UO-31 renal it was 15.1 µM; in the experiment with KM12 colon, 28.4 µM; with BT-549 breast it was 26.7 µM; in the experiment on MDA-MB-231 breast it was 33 µM. For the same compound, the TGI in the experiment on NCI-H460 lung is 27.4 µM; in the experiment with A498 renal, 31.5 µM; with SN12C renal, 49.4 µM; with EKVX NSCLC, 32.3 µM; with HS 578T breast it was 64.9 µM; in the experiment with OVCAR-4 ovarian, over 100 µM. For the same compound, the TGI in the experiment with SK-MEL-5 melanoma is 22.1 µM; with SNB-75 CNS, 29.2 µM; in the experiment on SW-620 colon, 25.3 µM; in the experiment on SK-MEL-28 melanoma, 23.5 µM; in the experiment with SR leukemia it was 64.1 µM.

For the compound `CCCN1C(=O)CN(S(=O)(=O)c2ccc(Cl)cc2)C1=O`, the TGI in the experiment with UACC-62 melanoma, with SK-MEL-2 melanoma, with UO-31 renal, with KM12 colon, in the experiment with BT-549 breast and in the experiment with MDA-MB-231 breast was over 100 µM throughout. Also, the TGI with NCI-H460 lung, in the experiment with A498 renal, in the experiment on SN12C renal, with EKVX NSCLC, in the experiment with HS 578T breast and in the experiment with OVCAR-4 ovarian was over 100 µM throughout. In addition, the TGI with SK-MEL-5 melanoma, in the experiment with SNB-75 CNS, in the experiment on SW-620 colon, in the experiment with SK-MEL-28 melanoma and in the experiment on SR leukemia was over 100 µM throughout.

For `Cc1cn([C@H]2C[C@@H](N3C(=O)c4ccccc4C3=O)[C@@H](CO[Si](C)(C)C(C)(C)C)O2)c(=O)[nH]c1=O`, the TGI with UACC-62 melanoma is 74.9 µM; with SK-MEL-2 melanoma it was over 100 µM; in the experiment with UO-31 renal, over 100 µM; with KM12 colon it was over 100 µM; with BT-549 breast, over 100 µM; with MDA-MB-231 breast it was over 100 µM. In addition, the TGI in the experiment with NCI-H460 lung, with A498 renal, in the experiment on SN12C renal, with EKVX NSCLC, with HS 578T breast and with OVCAR-4 ovarian was over 100 µM each time. Also, the TGI in the experiment with SK-MEL-5 melanoma is over 100 µM; in the experiment on SNB-75 CNS, 60.8 µM; in the experiment on SW-620 colon, over 100 µM; with SK-MEL-28 melanoma, over 100 µM; with SR leukemia, over 100 µM.

With `CC1(c2ccc(Cl)cc2)C=C(c2ccc(Cl)cc2)C(C#N)=C(C(C#N)C#N)N1` (configuration not stated), the TGI was determined as 28.2 µM in the experiment on UACC-62 melanoma; 47.1 µM in the experiment with SK-MEL-2 melanoma; 30.5 µM with UO-31 renal; 38.6 µM with KM12 colon; 43.3 µM in the experiment on BT-549 breast; 54.9 µM with MDA-MB-231 breast. Besides, the TGI with NCI-H460 lung was 52.9 µM; in the experiment with A498 renal, 33.7 µM; in the experiment on SN12C renal it was 33.5 µM; in the experiment with EKVX NSCLC it was 31.3 µM; in the experiment with HS 578T breast, 29.4 µM; with OVCAR-4 ovarian it was 32.6 µM. Also, the TGI in the experiment on SK-MEL-5 melanoma is 28.2 µM; in the experiment with SNB-75 CNS, 33.6 µM; with SW-620 colon, over 100 µM; with SK-MEL-28 melanoma, 66.6 µM; in the experiment on SR leukemia, 73.8 µM.

As to `NC(CCC(=O)O)C(=O)NC(Cc1ccc(N(CCCl)CCCl)cc1)C(=O)O` (configuration not stated), the TGI in the experiment on UACC-62 melanoma, with SK-MEL-2 melanoma, with UO-31 renal, in the experiment on KM12 colon, with BT-549 breast and with MDA-MB-231 breast was over 100 µM each time. The TGI in the experiment with NCI-H460 lung, with A498 renal, with SN12C renal, in the experiment with EKVX NSCLC, in the experiment on HS 578T breast and with OVCAR-4 ovarian was over 100 µM in each case. Besides, the TGI in the experiment on SK-MEL-5 melanoma, with SNB-75 CNS, in the experiment on SW-620 colon, with SK-MEL-28 melanoma and in the experiment with SR leukemia was over 100 µM in each case. Besides, the GI50 in the experiment with SR leukemia is > 100 µM and 28.5 µM.
